The record followed here is PubChem BioAssay (NCI).

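Growth conditions: 96-well plates. Treatment: test compound, 48 hours, 5 concentrations. Analysis: linear interpolation between bracketing concentrations; unreached endpoints set to highest concentration. GI50 is the concentration that inhibits growth by half. TGI: concentration producing complete growth inhibition.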

Some test systems named below: MALME-3M melanoma; UO-31 renal; MDA-MB-231 breast; UACC-62 melanoma; A498 renal; CAKI-1 renal; OVCAR-5 ovarian; SK-MEL-5 melanoma; MOLT-4 leukemia; HS 578T breast.
Test in all cases: NCI-60 cell line screen, 48 h

Regarding `O=C1/C(=C\c2ccc(F)cc2)CN(C(=O)c2ccc([N+](=O)[O-])cc2)C/C1=C\c1ccc(F)cc1`, the GI50 is 8220 nM with MALME-3M melanoma; 1690 nM in the test with UO-31 renal; 2380 nM in the test with MDA-MB-231 breast; 1980 nM in the test on UACC-62 melanoma; 4.4 µM in the test with A498 renal; 6.64 µM in the test on CAKI-1 renal. Besides, the GI50 in the test with OVCAR-5 ovarian is 4600 nM; in the test on SK-MEL-5 melanoma it was 1690 nM; in the test on MOLT-4 leukemia, 2700 nM; with HS 578T breast, 2290 nM. Also, the TGI with MALME-3M melanoma is 45.9 µM; in the test with UO-31 renal, 6.99 µM; with MDA-MB-231 breast it was 7.92 µM; in the test on UACC-62 melanoma, 6.27 µM; in the test with A498 renal, 47 µM; in the test with CAKI-1 renal, above 100 µM. The TGI in the test with OVCAR-5 ovarian is 49.5 µM; with SK-MEL-5 melanoma, 3.84 µM; with MOLT-4 leukemia, above 85.2 µM; in the test with HS 578T breast, 8.79 µM.
As for `NCCCCCCCCn1c2c(c3ccccc3c1=O)C(=O)c1ccccc1-2`, the GI50 in the test with MALME-3M melanoma is 2850 nM; with UO-31 renal, 3360 nM; in the test on MDA-MB-231 breast it was 2120 nM; with UACC-62 melanoma, 3760 nM; in the test on A498 renal it was 3.48 µM; with CAKI-1 renal, 3.25 µM. For the same compound, the GI50 was 2670 nM with OVCAR-5 ovarian, 1910 nM in the test with SK-MEL-5 melanoma, 1820 nM in the test with MOLT-4 leukemia and 3830 nM in the test on HS 578T breast. Besides, the TGI in the test on MALME-3M melanoma was found to be 8.86 µM; in the test on UO-31 renal, 12.3 µM; in the test on MDA-MB-231 breast, 5.73 µM; in the test with UACC-62 melanoma it was 14.1 µM; in the test on A498 renal it was 15.8 µM; in the test with CAKI-1 renal, 9.03 µM. Moreover, the TGI in the test on OVCAR-5 ovarian was determined as 7.89 µM; in the test with SK-MEL-5 melanoma, 3.94 µM; in the test on MOLT-4 leukemia, 3.53 µM; in the test on HS 578T breast, 22.2 µM.
For `Cc1ncc(C(=O)Nc2ccc(CN3CCN(C)CC3)c(C(F)(F)F)c2)cc1C#Cc1cnc(N)c2cnccc12`, the GI50 in the test on MALME-3M melanoma was below 11.3 nM; with UO-31 renal, 289 nM; in the test on MDA-MB-231 breast it was 28.9 nM; in the test with UACC-62 melanoma, 19 nM; in the test with A498 renal, 0.0511 µM; with CAKI-1 renal, 0.167 µM. In addition, the GI50 was 76 nM with OVCAR-5 ovarian, 80.5 nM with SK-MEL-5 melanoma, 41.2 nM in the test on MOLT-4 leukemia and 58 nM in the test with HS 578T breast. Also, the TGI came to 0.042 µM in the test on MALME-3M melanoma; 1.15 µM in the test on UO-31 renal; 0.165 µM with MDA-MB-231 breast; 0.105 µM with UACC-62 melanoma; 0.3 µM with A498 renal; 1.64 µM in the test with CAKI-1 renal. The TGI in the test with OVCAR-5 ovarian came out at 10.6 µM; in the test on SK-MEL-5 melanoma, 0.604 µM; in the test on MOLT-4 leukemia it was 4.98 µM; with HS 578T breast, 0.696 µM.
